# Results from patent US20050181072A1, “Use of essential oils for combating gi tract infection by helicobacter-like organisms” (priority 2000, published 2005).
# System: H. pylori
# Test: Liquid medium assay, MBC determination (CFU count after subculture)
# Assay type: cell-based
# Details: Helicobacter pylori, pH 7.4, read-out: Liquid medium MBC
# Procedure: The parameters used to define the inhibitory capacity of a given substance are: 1) the minimal inhibitory concentration (MIC) which is the lowest concentration at which bacterial growth is prevented, and 2) the minimal […] concentration (MBC) which is the lowest concentration at which bacteria are killed (no growth in subculture). In the light of this: MIC≦MBC. ?
# b) Liquid medium assay (used for MBC determination)
# MBC determination in H. pylori was carried out by placing bacteria and different dilutions of EO at pH 7.4 together for 1 h or 24 h, plating (subculture in solid medium) for 3-5 days, and counting colony forming units (CFU). The results were then plotted as H. pylori (log10CFU/ml) vs concentration of EO (g/l). It is clear from the plots (shown in FIGS. 1 and 2) that EOs already display a marked effect on H. pylori viability after 1 h incubation and that the selected EOs are remarkably potent inhibitors of H. pylori in vitro.
row,Compound,MBC
1,Cc1ccc(C(C)C)cc1O [Carvacrol],40 µg/mL
2,C=CCc1ccc(OC)cc1 [Estragole],100 µg/mL

# Same assay, conditions: Helicobacter pylori; pure compounds, Table 2; pH 7.4; read-out: Liquid medium MBC
row,Compound,MBC
1,CC1=CCC2CC1C2(C)C (stereo not drawn) [Alpha-pinene],100 µg/mL
2,C=C1CCC2CC1C2(C)C (stereo not drawn) [Beta-pinene],100 µg/mL
3,CC(C)=CCCC(C)=CC=O [Citral],40 µg/mL
4,CC(C)=CCCC(C)CC=O (centres unmarked) [Citronellal],100 µg/mL
5,C=CCc1ccc(O)c(OC)c1 [Eugenol],100 µg/mL
6,CC12CCC(CC1)C(C)(C)O2 [Eukalyptol],> 100 µg/mL
7,CC(C)=CCCC(C)=CCCC(C)=CCO [Farnesol],40 µg/mL
8,CC(C)=CCC/C(C)=C/CO [Geraniol],100 µg/mL
9,CC(=O)OC/C=C(\C)CCC=C(C)C [Geranyl acetate],> 100 µg/mL
10,CC=Cc1ccc(O)c(OC)c1 [Isoeugenol],40 µg/mL
11,C=CC(C)(O)CCC=C(C)C (centres unmarked) [Linalool],100 µg/mL
12,CC1CCC(C(C)C)C(O)C1 (centres unmarked) [Menthol],> 100 µg/mL
13,CC(C)=CCC/C(C)=C\CO [Nerol],40 µg/mL
14,Cc1ccc(C(C)C)c(O)c1 [Thymol],100 µg/mL
15,CCC/C=C/C=O [Trans-2-hexenal],40 µg/mL
